Entries after “also recorded” stand apart in the source; their conditions may differ.
Experiments:
[1] = HPLC analysis of paclitaxel in the formed tube/stent (stability to extrusion); format: physicochemical; settings: extraction in 50% ethanol and 50% methanol overnight at room temperature; FIG. 2
Description: The 10 μl extracting solutions were further analyzed by HPLC (HP16 series 1090, Hewlett-Packard Co. Palo Alto, Calif.). The samples were analyzed on a C18-reverse phase column (HP: 4.6×100 mm RP18) using a mobile phase consisting of 0.005% TFA buffer (0.05 ml Trifluoroacetic acid in 1000 ml acetonitrile) delivered at a flow rate of 1.0 mL/min.

[2] = after releasing from stent; through specific binding to binding proteins; cited from earlier work

CC(=O)O[C@H]1C(=O)[C@@]2(C)[C@H]([C@H](OC(=O)c3ccccc3)[C@]3(O)C[C@H](OC(=O)[C@H](O)[C@@H](NC(=O)c4ccccc4)c4ccccc4)C(C)=C1C3(C)C)[C@]1(OC(C)=O)CO[C@@H]1C[C@@H]2O [paclitaxel]
stability of paclitaxel during extrusion (HPLC peaks, pre-extrusion vs stent samples) [1]: not decomposed during extrusion; also recorded: survived the elevated extrusion temperature and are stable inside the stent strut

CO[C@H]1C[C@@H]2CC[C@@H](C)[C@@](O)(O2)C(=O)C(=O)N2CCCC[C@H]2C(=O)O[C@H]([C@H](C)C[C@@H]2CC[C@@H](O)[C@H](OC)C2)CC(=O)[C@H](C)/C=C(\C)[C@@H](O)[C@@H](OC)C(=O)[C@H](C)C[C@H](C)/C=C/C=C/C=C/1C [sirolimus]
retention in blood vessel wall [2]: up to three days
